This is an account of results in US20120283216A1, “FUNGICIDAL 2-(BICYCLIC ARYLOXY)CARBOXAMIDES” (priority 2009, published 2012).

What all share (type): in vivo
Test [1] concerns Blumeria graminis f. sp. tritici. Put plainly: Test A: wheat powdery mildew, preventive spray on wheat seedlings, visual disease rating. The following applies: preventive spray at 40 ppm, rated 8 days after inoculation; for pest or weed control at 40 ppm: Blumeria graminis, 192 h, read-out: Test A disease control rating (100 = 100% disease control, 0 = no disease control relative to the controls). The procedure, abridged: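 Wheat seedlings sprayed to run-off with 40 ppm compound (equivalent to 800 g/ha) in acetone/water with 250 ppm surfactant, then dusted with B. graminis spores next day. Held at 20° C. for 8 days before visual rating, 0–100 scale as % disease control relative to controls.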

For the next test, the system named is Botrytis cinerea. The test is described as follows: Test C: tomato botrytis, preventive spray on tomato seedlings, visual disease rating. The note with it: preventive spray at 40 ppm, rated after 48 h + 3 days; for pest or weed control at 40 ppm: Botrytis cinerea, 120 h, read-out: Test C disease control rating (100 = 100% disease control, 0 = no disease control relative to the controls). Summed up: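 Compounds applied at 40 ppm (≈800 g/ha) in acetone/water with surfactant, sprayed to run-off on tomato seedlings. Inoculated next day with B. cinerea spores; 48 h saturated humidity at 20 °C, then 3 days at 27 °C. Visual rating as % disease control versus untreated controls.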

The subject of the next test is Septoria tritici. The test is described as follows: Test B: wheat leaf blotch, preventive spray on wheat seedlings, visual disease rating. The following applies: preventive spray at 40 ppm, rated after 48 h + 19 days; for pest or weed control at 40 ppm: Zymoseptoria tritici, 504 h, read-out: Test B disease control rating (100 = 100% disease control, 0 = no disease control relative to the controls). The procedure, abridged: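 Wheat seedlings were sprayed to run-off with 40 ppm compound (≈800 g/ha) in acetone/water with 250 ppm surfactant, then inoculated with Septoria tritici spores the next day. After 48 h saturated humidity at 20° C and 19 days in a growth chamber at 20° C, disease control was rated visually (0–100% vs controls).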

On to `CCC(Oc1ccc2ccc(Br)cc2c1)C(=O)NC(C)(C)CN` (stereo not drawn) [Compound 14], for which the “Test A disease control rating (100 = 100% disease control, 0 = no disease control relative to the controls)” value in test [1] was 90%. In addition, in the test with Botrytis cinerea, the “Test C disease control rating (100 = 100% disease control, 0 = no disease control relative to the controls)” value worked out at 99%. In addition, the “Test B disease control rating (100 = 100% disease control, 0 = no disease control relative to the controls)” value with Septoria tritici is 99%.
On to `C#CC(C)(C)NC(=O)C(OC)Oc1ccc2ccc(C(F)F)cc2c1` (stereo not drawn) [Compound 80], for which the “Test A disease control rating (100 = 100% disease control, 0 = no disease control relative to the controls)” value in test [1] was found to be 0%. The “Test C disease control rating (100 = 100% disease control, 0 = no disease control relative to the controls)” value with Botrytis cinerea was 100%. In addition, the “Test B disease control rating (100 = 100% disease control, 0 = no disease control relative to the controls)” value in the test on Septoria tritici stood at 93%.
The matching figures for `CCC(Oc1cnc2ccc(I)cc2c1)C(=O)NC(C)(C)CO` (stereo not drawn) [Compound 52]: 0%, 82% and 45%.
As for `C#CC(C)(C)NC(=O)C(COC)Oc1cnc2ccc(Br)cc2c1` (stereo not drawn) [Compound 36], the “Test A disease control rating (100 = 100% disease control, 0 = no disease control relative to the controls)” value in test [1] is 0%. In addition, the “Test C disease control rating (100 = 100% disease control, 0 = no disease control relative to the controls)” value with Botrytis cinerea amounted to 36%. For the same compound, the “Test B disease control rating (100 = 100% disease control, 0 = no disease control relative to the controls)” value in the test with Septoria tritici was 89%.
The matching figures for `COCC(Oc1cnc2ccc(Br)cc2c1)C(=O)NC(C)(C)C` (stereo not drawn) [Compound 34]: 0%, 94% and 92%.
As to `CCC(Oc1ccc2ccc(Br)cc2c1)C(=O)NC(C)(C)CF` (stereo not drawn) [Compound 26, 2-[(7-bromo-2-naphthalenyl)oxy]-N-(2-fluoro-1,1-dimethylethyl)butanamide], the pest or weed control at 40 ppm in test [1] is 100%; in the test on Botrytis cinerea it was 99%; in the test with Septoria tritici, 100%.
With `CCOC(Oc1ccc2ccc(OC)cc2c1)C(=O)NC(C)(C)C#N` (stereo not drawn) [Compound 116], the “Test A disease control rating (100 = 100% disease control, 0 = no disease control relative to the controls)” value in test [1] was found to be 13%. In addition, the “Test C disease control rating (100 = 100% disease control, 0 = no disease control relative to the controls)” value in the test on Botrytis cinerea was 99%. Besides, the “Test B disease control rating (100 = 100% disease control, 0 = no disease control relative to the controls)” value in the test on Septoria tritici is on record as 99%.
On to `CCCOc1ccc2ccc(OC(CC)C(=O)NC(C)(C)C)cc2c1` (stereo not drawn) [Compound 128], for which the “Test A disease control rating (100 = 100% disease control, 0 = no disease control relative to the controls)” value in test [1] turned out to be 98%. Moreover, the “Test C disease control rating (100 = 100% disease control, 0 = no disease control relative to the controls)” value in the test on Botrytis cinerea was 99%. Further, the “Test B disease control rating (100 = 100% disease control, 0 = no disease control relative to the controls)” value with Septoria tritici is given as 100%.
The matching figures for `CCC(Oc1cnc2ccc(I)cc2c1)C(=O)NC(C)(C)COC` (stereo not drawn) [Compound 53]: 99%, 99% and 100%.
On to `CCC(Oc1ccc2ccc(Br)cc2c1)C(=O)NC(C)(C)CO` (stereo not drawn) [Compound 16, 2-[(7-bromo-2-naphthalenyl)oxy]-N-(2-hydroxy-1,1-dimethylethyl)-butanamide], for which the pest or weed control at 40 ppm worked out at 97% in test [1], 100% in the test on Botrytis cinerea and 99% in the test with Septoria tritici.
As for `CCC(Oc1ccc2ccc(I)cc2c1)C(=O)NC(C)(C)COC` (stereo not drawn) [Compound 92], the “Test A disease control rating (100 = 100% disease control, 0 = no disease control relative to the controls)” value in test [1] came to 100%. In the test with Botrytis cinerea, the “Test C disease control rating (100 = 100% disease control, 0 = no disease control relative to the controls)” value was 100%. Also, in the test with Septoria tritici, the “Test B disease control rating (100 = 100% disease control, 0 = no disease control relative to the controls)” value amounted to 100%.
On to `COCC(C)(C)NC(=O)C(OC)Oc1ccc2ccc(C#C[Si](C)(C)C)cc2c1` (stereo not drawn) [Compound 105], for which, in test [1], the “Test A disease control rating (100 = 100% disease control, 0 = no disease control relative to the controls)” value was 79%. Besides, the “Test C disease control rating (100 = 100% disease control, 0 = no disease control relative to the controls)” value with Botrytis cinerea amounted to 90%. In addition, in the test with Septoria tritici, the “Test B disease control rating (100 = 100% disease control, 0 = no disease control relative to the controls)” value turned out to be 100%.
As for `CCC(Oc1cnc2ccc(I)cc2c1)C(=O)NC(C)(C)COC` (single isomer, unassigned) [Compound 62], the “Test A disease control rating (100 = 100% disease control, 0 = no disease control relative to the controls)” value in test [1] is reported as 0%. For the same compound, the “Test C disease control rating (100 = 100% disease control, 0 = no disease control relative to the controls)” value in the test on Botrytis cinerea was determined as 7%. For the same compound, the “Test B disease control rating (100 = 100% disease control, 0 = no disease control relative to the controls)” value in the test on Septoria tritici was 0%.
On to `CCC(Oc1ccc2ccc(OC)cc2c1)C(=O)NC(C)(C)C#N` (stereo not drawn) [Compound 87], for which the “Test A disease control rating (100 = 100% disease control, 0 = no disease control relative to the controls)” value in test [1] was found to be 0%. For the same compound, the “Test C disease control rating (100 = 100% disease control, 0 = no disease control relative to the controls)” value in the test with Botrytis cinerea came out at 100%. In addition, the “Test B disease control rating (100 = 100% disease control, 0 = no disease control relative to the controls)” value with Septoria tritici turned out to be 100%.
`CC#CC(C)(C)NC(=O)C(CC)Oc1ccc2ccc(CC)cc2c1` (stereo not drawn) [Compound 142]: in test [1], the “Test A disease control rating (100 = 100% disease control, 0 = no disease control relative to the controls)” value is 96%. Besides, the “Test C disease control rating (100 = 100% disease control, 0 = no disease control relative to the controls)” value with Botrytis cinerea stood at 93%. Also, in the test on Septoria tritici, the “Test B disease control rating (100 = 100% disease control, 0 = no disease control relative to the controls)” value was 77%.
In the case of `COC(Oc1ccc2ccc(Br)cc2c1)C(=O)NC(C)(C)C#N` (stereo not drawn) [Compound 93], in test [1], the “Test A disease control rating (100 = 100% disease control, 0 = no disease control relative to the controls)” value was 95%. In the test on Botrytis cinerea, the “Test C disease control rating (100 = 100% disease control, 0 = no disease control relative to the controls)” value is reported as 100%. Besides, the “Test B disease control rating (100 = 100% disease control, 0 = no disease control relative to the controls)” value in the test on Septoria tritici is given as 100%.
Consider `COCC(C)(C)NC(=O)C(OC)Oc1cnc2ccc(C#C[Si](C)(C)C)cc2c1` (stereo not drawn) [Compound 160], for which the “Test A disease control rating (100 = 100% disease control, 0 = no disease control relative to the controls)” value in test [1] was found to be 69%. The “Test C disease control rating (100 = 100% disease control, 0 = no disease control relative to the controls)” value in the test with Botrytis cinerea came out at 97%. In addition, in the test on Septoria tritici, the “Test B disease control rating (100 = 100% disease control, 0 = no disease control relative to the controls)” value was found to be 99%.
Taken in the same sequence, the figures for `C#CCOc1ccc2ccc(OC(OC)C(=O)NC(C)(C)C#C)cc2c1` (stereo not drawn) [Compound 132] were 13%, 100% and 99%.
Taken in the same sequence, the figures for `CCCOc1ccc2ccc(OC(OC)C(=O)NC(C)(C)COC)cc2c1` (stereo not drawn) [Compound 124] were 98%, 99% and 100%.
Turning to `CCC(Oc1ccc2ccc(OCOC)cc2c1)C(=O)NC(C)(C)C#N` (stereo not drawn) [Compound 72], the “Test A disease control rating (100 = 100% disease control, 0 = no disease control relative to the controls)” value in test [1] is 0%. The “Test C disease control rating (100 = 100% disease control, 0 = no disease control relative to the controls)” value in the test on Botrytis cinerea came out at 100%. Moreover, in the test with Septoria tritici, the “Test B disease control rating (100 = 100% disease control, 0 = no disease control relative to the controls)” value turned out to be 99%.
The matching figures for `COC(Oc1cnc2ccc(C#C[Si](C)(C)C)cc2c1)C(=O)NC(C)(C)C` (stereo not drawn) [Compound 161]: 0%, 99% and 100%.
With `CCC(Oc1ccc2ccc(Br)cc2c1)C(=O)NC(C)(C)C=O` (stereo not drawn) [Compound 17], in test [1], the “Test A disease control rating (100 = 100% disease control, 0 = no disease control relative to the controls)” value was determined as 89%. For the same compound, the “Test C disease control rating (100 = 100% disease control, 0 = no disease control relative to the controls)” value with Botrytis cinerea stood at 99%. For the same compound, the “Test B disease control rating (100 = 100% disease control, 0 = no disease control relative to the controls)” value with Septoria tritici is 100%.
In the case of `CCC(Oc1cnc2ccc(F)cc2c1)C(=O)NC(C)(C)C` (stereo not drawn) [Compound 45], the pest or weed control at 40 ppm in test [1] is 84%; in the test with Botrytis cinerea, 98%; with Septoria tritici, 42%.
Consider `C#CC(C)(C)NC(=O)C(CC)Oc1ccc2ccc(CC)cc2c1` (stereo not drawn) [Compound 141], for which, in test [1], the “Test A disease control rating (100 = 100% disease control, 0 = no disease control relative to the controls)” value came to 97%. Besides, in the test on Botrytis cinerea, the “Test C disease control rating (100 = 100% disease control, 0 = no disease control relative to the controls)” value is 100%. Moreover, the “Test B disease control rating (100 = 100% disease control, 0 = no disease control relative to the controls)” value in the test on Septoria tritici came out at 80%.
The matching figures for `CCOc1ccc2ccc(OC(OCC)C(=O)NC(C)(C)C#N)cc2c1` (stereo not drawn) [Compound 123]: 82%, 98% and 100%.
In the case of `C#CC(C)(C)NC(=O)C(OC)Oc1ccc2ccc(OCC)cc2c1` (stereo not drawn) [Compound 69, N-(1,1-dimethyl-2-propyn-1-yl)-2-[(7-ethoxy-2-naphthalenyl)oxy]-2-methoxyacetamide], the pest or weed control at 40 ppm (in test [1]; in the test on Botrytis cinerea; with Septoria tritici) was 100% throughout.
Turning to `C#CCOc1ccc2ccc(OC(CC)C(=O)NC(C)(C)C#C)cc2c1` (stereo not drawn) [Compound 135], the “Test A disease control rating (100 = 100% disease control, 0 = no disease control relative to the controls)” value in test [1] stood at 0%. In addition, the “Test C disease control rating (100 = 100% disease control, 0 = no disease control relative to the controls)” value in the test on Botrytis cinerea stood at 99%. Moreover, in the test on Septoria tritici, the “Test B disease control rating (100 = 100% disease control, 0 = no disease control relative to the controls)” value was 98%.
